Measured values from US9862711B2, “Pyrazine derivatives as phosphatidylinositol 3-kinase inhibitors” (NOVARTIS AG, priority 2014, dated 2018).

Assays:
Type in all cases: cell-based
PI 3-kinase alpha = PI 3-kinase alpha (Homo sapiens (Human), UniProt P42336); assay: Cellular p-Akt (S473) SureFire assay, Rat-1_PI3Kalpha cells (Assay H); conditions: p-AKT (Ser473) in Rat-1 cells expressing myr-HA-hp110 alpha, 1 h compound; read-out: Assay H PI3Kα IC50
Description: (§1) Cellular Assays for PI 3-Kinase Alpha (H), Beta (I) and Delta (J)
(§2) AlphaScreen (Amplified Luminescent Proximity Homogeneous Assay, ALPHA, Perkin Elmer) is a non-radioactive bead-based proximity assay technology to study biomolecular interactions in a homogenous microtiter plate format. The brand name SureFire denotes AlphaScreen assays that are adapted to quantify the phosphorylation of endogenous cellular proteins in cell lysates, by using matched antibody pairs, which consist of an anti-phospho-kinase and an anti-kinase antibody. The assay allows characterization of kinase signaling in cells as well as measurement of kinase inhibitor effects.
(§3) Rat-1 cell lines stably overexpressing activated PI 3-kinase class I isoforms Rat-1 pBABEpuro Myr-HA-hp110 delta clone 5 (Rat-1_PI3Kdelta) and Rat-1 pBABEpuro Myr-HA-hp110 alpha clone 6 (Rat-1_PI3Kalpha) and Rat-1 pBABEpuro Myr-HA-hp110 beta (Rat-1_PI3beta) were cultivated in complete growth medium (DMEM high glucose, 10% (v/v) fetal bovine serum, 1% (v/v) MEM NEAA, 10 mM HEPES, 2 mM L-glutamine, puromycin (10 μg/mL for Rat-1_PI3Kdelta and Rat-1_PI3Kalpha, 4 ug/mL for Rat-1_PI3beta), 1% (v/v) Pen/Strep) to 90% confluency at 37° C./5% CO2/90% humidity in a humidified CO2 incubator and were split twice a week. The following materials were used for p-AKT(5473) detection in Rat-1 cell lysates: Dulbecco's modified Eagle's medium (DMEM) high glucose (Gibco Invitrogen, Basel, Switzerland, Cat. No. 41965), heat inactivated fetal bovine serum, qualified (HI FBS; Gibco Invitrogen, Basel, Switzerland, Lot. No. 16140), MEM non essential amino acids (NEAA; Gibco Invitrogen, Basel, Switzerland, Cat. No. 11140), HEPES (Gibco Invitrogen, Basel, Switzerland, Cat. No. 15630), penicillin/streptomycin (Pen/Strep, 100×; Gibco Invitrogen, Basel, Switzerland, Cat. No. 15140-122), L-glutamine (Gibco Invitrogen, Basel, Switzerland, Cat. No. 25030), puromycin (Sigma Aldrich, Buchs, Switzerland, Cat. No. P9620), DMSO (MERCK, Dietikon, Switzerland, Cat. No. 8.02912.2500), H2O, MilliQ-H2O unless otherwise stated (MILLIPORE QGARDOOR1, Millipore, Zug, Switzerland), bovine serum albumine (BSA; Sigma Aldrich, Buchs, Switzerland Cat. No. A8412), SureFire p-Akt 1/2 (Ser473) Assay Kit (Perkin Elmer, Schwerzenbach, Switzerland, Cat. No. TGRAS50K).
(§4) The p-Akt (S473) SureFire assay measures the phosphorylation of endogenous cellular Akt 1/2 at Ser473 in cell lysates. Using Rat-1 cells stably expressing myr-HA-tagged versions of the human PI3Kdelta, PI3Kalpha, or PI3Kbeta p110 catalytic subunit isoforms, the assay was developed as a two-plate protocol in a 384-well format.
(§5) For compound testing, the cells were seeded at a density of 4000 (Rat-1_PI3Kdelta), 7500 (Rat-1_PI3Kalpha), or 6200 (Rat-1_PI3Kbeta) cells in 20 μl complete growth medium into cell culture treated 384-well plates and were grown at 37° C./5% CO2/90% humidity for 24 h. Shortly before compound transfer, the complete medium was removed, 30 μl assay buffer (DMEM high glucose, 1×MEM NEAA, 10 mM HEPES, 2 mM L-glutamine, 0.1% (w/v) BSA) was added and 10 μl of the compound predilutions were transferred to the cells. After treatment with compound for 1 h, the cells were lysed by the addition of 20 μl lysis buffer supplemented with 0.24% (w/v) BSA. Detection of p-AKT (Ser473) was performed with the SureFire p-Akt 1/2 (Ser473) Assay Kit according to the manufacturer's instructions using 5 ul of cell lysate in a total detection volume of 12 μl.
(§6) IC50 values of the percentage inhibition of each compound at 8 concentrations (usually 10, 3.0, 1.0, 0.3, 0.1, 0.030, 0.010 and 0.003 μM) n=2 were derived by fitting a sigmoidal dose-response curve to a plot of assay readout over inhibitor concentration as described. All fits were performed with the program XLfit4 (ID Business Solutions, Guildford, UK).

PI 3-kinase beta = PI 3-kinase beta (Homo sapiens (Human), UniProt P42338); assay: Cellular p-Akt (S473) SureFire assay, Rat-1_PI3Kbeta cells (Assay I); conditions: p-AKT (Ser473) in Rat-1 cells expressing myr-HA-hp110 beta, 1 h compound; read-out: Assay I PI3Kβ IC50
Chain of PI 3-kinase beta (P42338 whole entry): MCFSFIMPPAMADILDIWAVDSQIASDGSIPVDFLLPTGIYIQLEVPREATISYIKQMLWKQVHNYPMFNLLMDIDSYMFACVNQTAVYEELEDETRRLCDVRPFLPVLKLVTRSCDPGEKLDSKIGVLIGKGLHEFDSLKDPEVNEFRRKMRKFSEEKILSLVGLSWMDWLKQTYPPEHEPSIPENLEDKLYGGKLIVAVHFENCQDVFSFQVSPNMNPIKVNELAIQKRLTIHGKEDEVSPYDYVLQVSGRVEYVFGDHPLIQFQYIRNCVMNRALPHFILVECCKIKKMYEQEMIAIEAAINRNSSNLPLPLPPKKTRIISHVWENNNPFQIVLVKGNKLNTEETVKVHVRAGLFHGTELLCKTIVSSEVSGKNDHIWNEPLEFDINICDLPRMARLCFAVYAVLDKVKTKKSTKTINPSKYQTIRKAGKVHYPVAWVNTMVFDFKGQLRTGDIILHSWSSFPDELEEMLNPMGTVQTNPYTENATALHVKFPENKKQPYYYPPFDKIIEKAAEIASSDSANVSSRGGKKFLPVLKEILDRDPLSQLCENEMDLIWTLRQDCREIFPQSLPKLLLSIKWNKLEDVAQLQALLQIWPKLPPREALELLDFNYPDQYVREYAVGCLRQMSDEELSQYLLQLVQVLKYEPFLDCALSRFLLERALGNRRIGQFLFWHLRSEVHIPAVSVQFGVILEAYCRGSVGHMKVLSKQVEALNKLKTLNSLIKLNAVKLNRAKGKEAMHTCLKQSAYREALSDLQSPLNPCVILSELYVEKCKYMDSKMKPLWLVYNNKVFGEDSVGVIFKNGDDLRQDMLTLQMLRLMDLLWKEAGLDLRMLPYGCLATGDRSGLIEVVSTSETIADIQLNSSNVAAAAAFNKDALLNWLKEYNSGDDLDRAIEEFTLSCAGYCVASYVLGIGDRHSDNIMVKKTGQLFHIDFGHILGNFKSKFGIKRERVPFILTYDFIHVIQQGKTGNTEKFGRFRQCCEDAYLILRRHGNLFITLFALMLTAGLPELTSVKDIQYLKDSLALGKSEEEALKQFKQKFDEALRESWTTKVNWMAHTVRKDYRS
Chain of PI 3-kinase beta (Q63787 whole entry partner): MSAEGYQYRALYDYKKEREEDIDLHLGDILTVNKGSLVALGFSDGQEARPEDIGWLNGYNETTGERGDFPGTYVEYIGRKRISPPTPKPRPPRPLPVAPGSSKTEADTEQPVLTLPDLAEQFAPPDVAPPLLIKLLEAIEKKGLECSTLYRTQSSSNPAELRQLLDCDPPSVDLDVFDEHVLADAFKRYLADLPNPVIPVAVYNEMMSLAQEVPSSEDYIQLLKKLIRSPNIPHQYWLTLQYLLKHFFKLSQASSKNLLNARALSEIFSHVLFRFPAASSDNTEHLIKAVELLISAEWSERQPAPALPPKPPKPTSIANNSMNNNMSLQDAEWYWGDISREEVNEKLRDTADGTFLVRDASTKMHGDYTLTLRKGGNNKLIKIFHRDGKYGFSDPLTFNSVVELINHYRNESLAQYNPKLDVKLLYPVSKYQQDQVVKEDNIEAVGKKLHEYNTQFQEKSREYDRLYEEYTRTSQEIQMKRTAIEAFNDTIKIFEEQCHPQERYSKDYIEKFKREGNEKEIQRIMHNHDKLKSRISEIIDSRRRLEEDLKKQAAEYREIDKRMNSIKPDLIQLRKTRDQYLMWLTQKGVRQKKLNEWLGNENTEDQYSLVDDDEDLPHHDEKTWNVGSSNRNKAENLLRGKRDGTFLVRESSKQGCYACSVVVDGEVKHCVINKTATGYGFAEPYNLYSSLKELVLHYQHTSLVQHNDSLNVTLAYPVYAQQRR
Description: as §1, §2, §3, §4, §5, §6

PI 3-kinase delta = PI 3-kinase delta (Homo sapiens (Human), UniProt O00329); assay: Cellular p-Akt (S473) SureFire assay, Rat-1_PI3Kdelta cells (Assay J); conditions: p-AKT (Ser473) in Rat-1 cells expressing myr-HA-hp110 delta, 1 h compound; read-out: Assay J PI3Kδ IC50
Chain of PI 3-kinase delta (O00329 whole entry): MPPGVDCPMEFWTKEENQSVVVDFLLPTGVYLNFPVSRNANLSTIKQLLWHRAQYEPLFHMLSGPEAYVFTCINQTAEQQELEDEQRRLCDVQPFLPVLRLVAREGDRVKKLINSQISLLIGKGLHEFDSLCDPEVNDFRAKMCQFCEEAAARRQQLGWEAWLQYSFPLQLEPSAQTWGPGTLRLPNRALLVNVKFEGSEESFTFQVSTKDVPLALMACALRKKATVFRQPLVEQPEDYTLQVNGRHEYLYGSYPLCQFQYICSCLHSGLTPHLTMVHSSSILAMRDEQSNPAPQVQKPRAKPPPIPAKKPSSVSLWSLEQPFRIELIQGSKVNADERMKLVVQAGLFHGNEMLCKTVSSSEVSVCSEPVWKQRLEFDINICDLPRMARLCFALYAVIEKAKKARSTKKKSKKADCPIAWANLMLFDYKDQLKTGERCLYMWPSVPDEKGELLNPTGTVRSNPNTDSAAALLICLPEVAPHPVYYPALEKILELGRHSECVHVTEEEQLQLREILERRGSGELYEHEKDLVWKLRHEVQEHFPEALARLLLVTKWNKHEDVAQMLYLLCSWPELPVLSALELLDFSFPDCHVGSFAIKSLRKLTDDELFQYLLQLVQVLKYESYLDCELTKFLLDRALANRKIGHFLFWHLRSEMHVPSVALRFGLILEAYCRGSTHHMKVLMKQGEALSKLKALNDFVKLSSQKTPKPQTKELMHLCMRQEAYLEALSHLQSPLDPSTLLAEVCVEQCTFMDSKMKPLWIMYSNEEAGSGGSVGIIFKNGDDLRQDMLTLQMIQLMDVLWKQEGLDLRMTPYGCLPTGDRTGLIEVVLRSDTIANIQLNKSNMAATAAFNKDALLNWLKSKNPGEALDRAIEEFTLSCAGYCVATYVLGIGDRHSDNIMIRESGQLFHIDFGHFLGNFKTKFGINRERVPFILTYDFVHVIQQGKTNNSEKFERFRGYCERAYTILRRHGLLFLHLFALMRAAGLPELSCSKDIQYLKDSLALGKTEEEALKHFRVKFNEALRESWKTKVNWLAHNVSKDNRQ
Chain of PI 3-kinase delta (Q63787 whole entry partner): as the sequence (Q63787 whole entry partner) above
Description: as §1, §2, §3, §4, §5, §6

[1] = tested on: IL-8-induced neutrophil shape change in human whole blood; assay: Whole blood neutrophil shape change assay (Assay L); conditions: 2 nM IL-8, neutrophil shape change by flow cytometry, read-out: Assay L WBSC IC50
Procedure: Whole Blood Neutrophil Shape Change Assay (L)
A flow cytometry based method used to measure the inhibition of IL-8 (interleukin-8)-induced neutrophil shape change in human whole blood.
IL-8 was made up to 2 μM stocks in 0.1% bovine serum albumin/PBS and stored at −80° C. On the day IL-8 was diluted in PBS (phosphate buffered saline) 10 minutes before use. IL-8 was used at final concentration of 2 nM and a concentration range from […] to 200 nM for the donor dose response curve.
Assay fixative solution was prepared fresh each day from 10× concentrated CellFIX™ solution diluted 1:10 in sterile distilled water and then 1:4 with PBS. Assay fixative solution was kept on ice prior to use.
A 10× lysis buffer was prepared in advance by dissolving 20.75 g […] and 2.5 g KHCO3 in 250 ml sterile H2O. This 10× lysis buffer was filtered under sterile conditions and stored for up to two weeks at 4° C. On the day a 1× lysis solution was prepared with sterile distilled H2O and kept on ice prior to use.
The test compounds were prepared as 10 mM stock solutions in 100% DMSO and were stored at 4° C. Once in use for an assay 10 mM stock compounds were thawed and stored at RT protected from light. Compound dilutions were prepared fresh on the day. The first series of dilutions in 100% DMSO were done first thing in the morning. Only once blood had been collected and arrived in laboratory was the next set of dilutions into PBS carried out (1:10 PBS, 10% DMSO). This limited the exposure of diluted compound to plastic and made sure the exposure timing was consistent between assays. Compounds were added to the deep 96 well plates at 10× the final desired concentration (with addition of blood final [DMSO]=1%).
Table 3 illustrates the compound dilution series used in human whole blood neutrophil shape change assay.
On the day of running the assay, assay fixative buffer and 1× lysis solutions were prepared and stored on ice. Compound dilutions in 100% DMSO were prepared as described previously. Human whole blood was collected in K2 EDTA Vacutainers. Once blood was in the laboratory, compound dilutions into PBS were carried out as described previously and depicted in Table 1. 10 μl of 10× final compound concentration was added to appropriate wells of a deep 96-well plate except controls where 10 μl of 10% DMSO was added in place of compound, as outlined in the dilution series in Table 1. The outer wells of the deep well assay plate were filled with 1200 μl of sterile distilled H2O in an effort to limit edge effects (rows A1-H1, A1-A12, A12-H12). An IL-8 dose response was determined for each blood donor examined, to monitor the donor response to IL-8. At this step in assay preparation for the IL-8 dose response samples 10 μl of PBS was added to designated wells. In addition the assay window without DMSO was also assessed each day. For such samples at this step in assay preparation 10 μl of PBS was added in the place of 10% DMSO.
80 μl of whole blood was added to compound/10% DMSO/PBS and mixed once gently upon addition. Lids were placed on the 96 well plates and samples were incubated for 15 minutes at 37° C. in a water-bath.
Following the compound pre-incubation 10× final IL-8 was added to appropriate wells (10 μl of 20 nM working stock IL-8, final IL-8 concentration in blood=2 nM) and 10 μl of PBS was added to the un-stimulated controls. 10× final dose response range IL-8 was also added to designated wells (final concentration range on assay plate was 200 nM to 0.0005 nM, 1:5 serial dilution in PBS). The IL-8 and PBS were added to appropriate wells across all assay plates in the same sequence as the blood to compound addition. Once added to all assay plates, samples were mixed quickly once to ensure even distribution of IL-8. Samples were incubated for 5 minutes at 37° C. in a water-bath. Following the incubation sample plates were transferred to ice where 250 μl of chilled Assay Fixative Buffer was added promptly to all wells. […]

Chain of PI 3-kinase alpha (P42336 whole entry): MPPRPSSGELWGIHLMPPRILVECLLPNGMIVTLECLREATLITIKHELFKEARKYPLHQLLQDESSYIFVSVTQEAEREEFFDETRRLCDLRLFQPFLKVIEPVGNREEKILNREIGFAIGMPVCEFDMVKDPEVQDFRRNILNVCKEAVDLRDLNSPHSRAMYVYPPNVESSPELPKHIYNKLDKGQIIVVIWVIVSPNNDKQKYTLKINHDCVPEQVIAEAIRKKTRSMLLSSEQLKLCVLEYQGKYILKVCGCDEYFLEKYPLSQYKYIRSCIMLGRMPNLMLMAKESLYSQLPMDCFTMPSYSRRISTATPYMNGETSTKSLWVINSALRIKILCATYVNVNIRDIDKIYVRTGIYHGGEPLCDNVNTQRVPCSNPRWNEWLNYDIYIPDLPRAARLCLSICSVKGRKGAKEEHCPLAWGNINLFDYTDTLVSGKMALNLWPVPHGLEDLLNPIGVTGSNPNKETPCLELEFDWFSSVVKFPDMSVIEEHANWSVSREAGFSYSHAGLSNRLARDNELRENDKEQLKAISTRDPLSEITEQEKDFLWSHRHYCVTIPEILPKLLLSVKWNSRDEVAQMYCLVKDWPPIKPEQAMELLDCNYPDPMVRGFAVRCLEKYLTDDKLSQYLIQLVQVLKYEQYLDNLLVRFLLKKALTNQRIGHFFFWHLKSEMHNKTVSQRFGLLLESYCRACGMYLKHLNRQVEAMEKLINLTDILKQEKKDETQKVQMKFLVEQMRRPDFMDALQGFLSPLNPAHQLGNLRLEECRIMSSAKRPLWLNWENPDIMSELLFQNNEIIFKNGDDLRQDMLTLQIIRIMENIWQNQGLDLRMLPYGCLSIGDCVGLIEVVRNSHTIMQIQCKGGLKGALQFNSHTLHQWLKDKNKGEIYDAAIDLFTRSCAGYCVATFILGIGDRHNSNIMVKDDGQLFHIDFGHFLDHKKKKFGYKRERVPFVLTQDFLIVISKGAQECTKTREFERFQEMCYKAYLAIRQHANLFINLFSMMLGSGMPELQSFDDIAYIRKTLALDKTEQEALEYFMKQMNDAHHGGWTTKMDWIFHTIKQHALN
Chain of PI 3-kinase alpha (Q63787 whole entry partner): as the sequence (Q63787 whole entry partner) above

Structure (SMILES) | IC50 (PI 3-kinase alpha) | IC50 (PI 3-kinase beta) | IC50 (PI 3-kinase delta) | IC50 [1]
Cc1ccc(S(=O)(=O)NC2CC3(CC(O)C3)C2)cc1-c1cncc(-c2cn(C)nc2C)n1 (stereo not shown) [Example 6, 3-[6-(1,3-Dimethyl-1H-pyrazol-4-yl)-pyrazin-2-yl]-N-(6-hydroxy-spiro[3.3]hept-2-yl)-4-methyl-benzenesulfonamide] | 709 nM | 1050 nM | 515 nM | 374 nM
Cc1ccc(S(=O)(=O)NC[C@H]2C[C@@H](O)C2)cc1-c1cncc(-c2cn(C)nc2C)n1 [Example 7, Cis 3-[6-(1,3-Dimethyl-1H-pyrazol-4-yl)-pyrazin-2-yl]-N-(3-hydroxy-cyclobutylmethyl)-4-methyl-benzenesulfonamide] | – | – | – | 212 nM
Cc1ccc(S(=O)(=O)N[C@H]2CC[C@H](O)CC2)cc1-c1cncc(-c2csc(CN3CCOCC3)c2)n1 [Example 12, Trans N-(4-Hydroxy-cyclohexyl)-4-methyl-3-[6-(5-morpholin-4-ylmethyl-thiophen-3-yl)-pyrazin-2-yl]-benzenesulfonamide] | 1140 nM | 1110 nM | 306 nM | 830 nM
Cc1cc(-c2cncc(-c3cc(S(=O)(=O)NC[C@H]4C[C@@H](O)C4)ccc3C)n2)n(C)n1 [Example 13, Cis 3-[6-(2,5-Dimethyl-2H-pyrazol-3-yl)-pyrazin-2-yl]-N-(3-hydroxy-cyclobutylmethyl)-4-methyl-benzenesulfonamide] | – | – | – | 847 nM
